Measured values as given in PubChem BioAssay AID1985 (Southern Research Specialized Biocontainment Screening …, 2009).
Several values for one entry are separate records, joined by “and”; a condition that tells them apart may be missing. Identical values can stand only once.

Each molecule was assayed on S. Typhi PhoP-promoter GFP reporter, fluorescence, 4 h (assay: PhoP regulon inhibitor project modified counter assay, GFP fluorescence readout, dose response (AID 1985)).

Row | SMILES | IC50
1 | Cc1ccc(OCC(=O)N/N=C/c2ccc([N+](=O)[O-])o2)cc1 | 28.6 µM
2 | CCc1ccc(CNCc2ccc(OCC(O)CN(C)Cc3ccccc3)cc2)nc1 (centres undefined) | 146 µM
3 | COc1ccccc1C(C[N+](=O)[O-])c1c(N)n(C)c(=O)n(C)c1=O (centres undefined) | 79.1 µM
4 | CC(=O)Nc1ccc(S(=O)(=O)NNc2cccc(C)c2)cc1 | 58.9 µM
5 | CCN1CCN(CCNC(=O)c2ccc3c(c2)N(Cc2ccc(F)cc2)C(=O)/C(=C/c2ccccc2)S3)CC1 | 125 µM
6 | O=C1C(Cl)=C(NCc2cccnc2)C(=O)c2ccccc21 | 41.6 µM
7 | Nc1ncncc1-c1ccc(Cl)cc1 | 131 µM
8 | O=C(NC(=S)NNC(=O)c1cccs1)c1ccc(Br)o1 | 25.4 µM
9 | CCN(CC)C(=S)SSC(=S)N(CC)CC | 21.8 µM
10 | CN1CCN(C2Cc3cc(F)ccc3Sc3ccc(Cl)cc32)CC1 (centres undefined) | 74.4 µM
11 | COC(=O)C1C(O)C(C)C(O)C(C)/C=C\C=C(/C)C(=O)Nc2c(C)c(OC(C)=O)c3c(c2O)C(=O)C(C)=C2OCOC(=C23)/C(C)=C/C(C)(O)C(O)C(C)C1O (centres undefined) | 24.4 µM
12 | COc1c(N2CCN(C(=S)Nc3ccc(F)cc3)C(C)C2)c(F)cc2c(=O)c(C(=O)O)cn(C3CC3)c12 (centres undefined) | 0.581 µM
13 | C[C@H]1COc2c(C3(N)CC3)c(F)cc3c(=O)c(C(=O)O)cn1c23 | < 0.23 µM
14 | S=C(Nc1ccc(Cl)c(Cl)c1)NC1CCN(Cc2ccccc2)CC1 | 38 µM
15 | OC(CN1CCCCC1)Cn1c2ccccc2c2cc(Br)ccc21 (centres undefined) | 81.9 µM
16 | Cc1cccc2c1Sc1ccc(Cl)cc1CC2N1CCNCC1 (centres undefined) | 32.7 µM
17 | Cc1ccc(Nc2cc(C)c3c(O)cccc3n2)cc1C | 30.7 µM
18 | COc1ccc(CCN2CCC(Nc3nc4ccccc4n3Cc3ccc(F)cc3)CC2)cc1 | 105 µM
19 | NCCCC[C@H]1CN=C(N)N1CCC12CC3CC(CC(C3)C1)C2 | 131 µM
20 | S=C(Nc1cc(Cl)cc(Cl)c1)NC1CCN(Cc2ccccc2)CC1 | 36.7 µM

Row | SMILES | IC50
21 | Cc1ccc(C(C[N+](=O)[O-])Sc2ccc(N)cc2)cc1 (centres undefined) | 29.5 µM
22 | O=C(OCC(=O)N1CCOCC1)c1ccc[nH]c1=O | 10.6 µM
23 | CN1CCN(CC(=O)N2CCn3c4c(c5cc(C6CCCCC6)ccc53)CCCC42)CC1 (centres undefined) | 76.5 µM
24 | N=c1n(CCN2CCCCC2)c2ccccc2n1CC(O)COc1ccccc1 (centres undefined) | 90.2 µM
25 | O=[N+]([O-])c1cc([N+](=O)[O-])c2cccnc2c1Oc1ccccc1O | 88 µM
26 | Cc1cc(OCCCCCNCCO)cc(C)c1Cl | 147 µM
27 | Clc1ccc(C(c2ccccc2)N2CCNCC2)cc1 (centres undefined) | 144 µM
28 | CCCCCCCCCCOC(=O)Cn1c(COc2ccc(Cl)cc2)[n+](C)c2ccccc21 | 15.7 µM
29 | CN1CCN(CCCN2c3ccccc3Sc3ccc(Cl)cc32)CC1 | 132 µM and 79.2 µM
30 | COc1ccc(Cc2nnc(N/N=C/c3ccc(O)cc3)[nH]c2=O)cc1OC | 54.8 µM
31 | CC(C)(C)c1ccc(OCCCCCCN2CCNCC2)cc1 | 127 µM
32 | Cc1cc(C)c(NC(=O)C[N+](C)(C)CC(O)COc2cccc3ccccc23)c(C)c1 (centres undefined) | 75.9 µM
33 | ON=C1/C(=N\O)CC2(C/C1=N/O)OCCO2 | 112 µM
34 | CC(=O)NNC(=S)NC(=O)c1ccccc1 | 22.7 µM
35 | CCn1cc(C(=O)O)c(=O)c2cc(F)c(N3CCN(C(=S)Nc4ccc(OC)cc4)CC3)cc21 | 5.64 µM
36 | O=C(N/N=C/c1ccc(O)cc1O)C(=O)N/N=C/c1ccc(O)cc1O | 108 µM
37 | NC1=NC[C@H](c2ccccc2)N1CCc1cc(C(F)(F)F)cc(C(F)(F)F)c1 | 55.9 µM
38 | COc1cc([N+](=O)[O-])cc(/C=N/NC(=O)CSc2ccccn2)c1O | 77.7 µM
39 | O=c1cc(-c2ccccc2)cc(-c2ccccc2)n1O | 51.7 µM
40 | c1ccc2oc(-c3csc(NCC4CCCO4)n3)cc2c1 (centres undefined) | 142 µM

Row | SMILES | IC50
41 | O=C(NCCCN1CCN(c2ccc(F)cc2)CC1)Nc1ccc([N+](=O)[O-])cc1 | 117 µM
42 | C[C@H]1COc2c(N3CCN(C)CC3)c(F)cc3c(=O)c(C(=O)O)cn1c23 | < 0.23 µM
43 | CCCNC1=C(C)C(=O)C2=C(C1=O)C(COC(N)=O)[C@]1(OC)C3NC3CN21 (some centres undefined) | 51.8 µM
44 | CN(C)CC/C=C1/c2ccccc2Sc2ccc(Cl)cc21 | 86.2 µM
45 | O=C1c2ccccc2C2=Nc3ccccc3SC(c3ccccc3F)C12 (centres undefined) | 21 µM
46 | CCOc1cc(C(c2c(C)[nH][nH]c2=O)c2c(C)[nH][nH]c2=O)cc([N+](=O)[O-])c1O | 75.6 µM
47 | O=C(Nc1ccccc1)Nc1nccs1 | 128 µM
48 | COc1c(N2CCN[C@H](C)C2)c(F)cc2c(=O)c(C(=O)O)cn(C3CC3)c12 | < 0.23 µM
49 | CN1/C(=C\C=C\C2=[N+](C)c3ccc4ccccc4c3C2(C)C)C(C)(C)c2ccccc21 | 3.62 µM
50 | O=C(CSc1nnc(-c2cccnc2)n1Cc1ccco1)c1ccc2ccccc2c1 | < 0.23 µM
51 | C1=C(CCNCc2ccccc2)CCCC1 | 8.38 µM
52 | CS(=O)(=O)c1ccc([C@@H](O)[C@@H](CF)NC(=O)C(Cl)Cl)cc1 | 4.74 µM
53 | Cc1cc(C)n(/N=C/c2cc([N+](=O)[O-])ccc2O)c(=O)c1 | 70.5 µM
54 | C[n+]1c2n(c3ccccc31)N=C(c1ccc(-c3ccccc3)cc1)CS2 | 38 µM
55 | C#CCOCCOCCOCCNc1nc(N2CCN(C(=O)[C@H]([C@@H](C)CC)n3cc([C@@H](N)Cc4ccc(O)cc4)nn3)CC2)nc(N2CCN(C(=O)[C@H](Cc3cc4ccccc4[nH]3)n3cc([C@@H](N)CC(C)C)nn3)CC2)n1 | 150 µM
56 | Clc1ccc(OCCCNCc2ccccc2)c2ccccc12 | 33.8 µM
57 | O=c1[nH]cc(N=Cc2cc([N+](=O)[O-])ccc2O)c(=O)[nH]1 | 39.7 µM
58 | CNCCCC1Sc2ccccc2Oc2ccccc21 (centres undefined) | 144 µM
59 | N/C(=N\N=C/c1ccc(F)cc1)N/N=C\c1ccc(F)cc1 | 75.1 µM
